Reference: article PMC7181047, “Flame-Made Calcium Phosphate Nanoparticles with High Drug Loading for Delivery of Biologics” (Molecules, 2020)

Key:
Proteinase K [1] = target: T1, Proteinase K (Parengyodontium album, UniProt P06873); assay: Proteinase K degradation assay (SDS-PAGE); assay type: in vitro ADME; details: 0.5 µg LL-37, 20 ng Proteinase K, 20 mM Tris-HCl pH 8.0, 37 °C, up to 240 min, at least three repetitions
T1 construct: purchased Qiagen, Hilden, Germany
Procedure: A total of 0.5 µg LL-37, either loaded on nanoparticles or not, was subjected to Proteinase K degradation assay. Input samples were taken without Proteinase K added, as a positive control and is considered to be “100%” when calculating protein amounts. LL-37 was incubated in 20 mM Tris-HCl, pH 8.0 with a total of 20 ng Proteinase K (Qiagen, Hilden, Germany) added to the reaction. Samples were incubated at 37 °C until given timepoints where the reaction was stopped by the addition of SDS loading buffer (at a final concentration of 50 mM Tris-HCl pH 6.8, 2% SDS, 10% glycerol, 1% β-mercaptoethanol, 12.5 mM EDTA and 0.02% Bromophenol blue) and samples were then immediately boiled for 10 min at 98 °C.
Samples were loaded onto a NuPAGE 4%–12% Bis-Tris gel (Invitrogen, Carlsbad, CA, USA) and run in MES-buffer (Invitrogen) at 40 mA/gel. Since LL-37 is a small peptide, samples were run only halfway through the gel. The gels where then washed in Mill-Q water 3 times, 10 min before immersion in Imperial Protein Stain (Thermo Scientific) for 1 h. After that Mill-Q water was used to destain the gels before image acquisition on GelDoc XRS+ (Bio-Rad, Hercules, CA, USA). Bands were quantified using Image Studio Lite v. 5.2 (LI-COR Biosciences, Lincoln, NE, USA).

Proteinase K [2] = target: T1, Proteinase K; parameters: method as in PMID 10417311; details: after 2 h; cited from earlier work
Procedure: In order to assess the enzymatic degradation of LL-37 and the protective potential from the CaPS nanocarriers, a degradation assay utilizing Proteinase K was performed (Sodium Dodecyl Sulfate–Polyacrylamide Gel Electrophoresis, SDS-PAGE).

T1 sequence (P06873 106-384): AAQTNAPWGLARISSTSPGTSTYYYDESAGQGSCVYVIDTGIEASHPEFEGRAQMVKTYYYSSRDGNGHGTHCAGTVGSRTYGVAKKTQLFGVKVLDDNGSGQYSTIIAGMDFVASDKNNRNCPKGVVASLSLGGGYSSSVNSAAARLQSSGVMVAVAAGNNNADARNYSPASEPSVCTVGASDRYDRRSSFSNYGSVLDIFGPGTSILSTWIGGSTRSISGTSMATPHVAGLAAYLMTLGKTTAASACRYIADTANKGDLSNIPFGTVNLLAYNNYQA

SMILES: CC[C@H](C)[C@H](NC(=O)[C@H](CCCCN)NC(=O)[C@H](CCC(=O)O)NC(=O)[C@H](CCCCN)NC(=O)[C@H](CO)NC(=O)[C@H](CCCCN)NC(=O)[C@H](CCCNC(=N)N)NC(=O)[C@H](Cc1ccccc1)NC(=O)[C@H](Cc1ccccc1)NC(=O)[C@H](CC(=O)O)NC(=O)CNC(=O)[C@H](CC(C)C)NC(=O)[C@@H](N)CC(C)C)C(=O)NCC(=O)N[C@@H](CCCCN)C(=O)N[C@@H](CCC(=O)O)C(=O)N[C@@H](Cc1ccccc1)C(=O)N[C@@H](CCCCN)C(=O)N[C@@H](CCCNC(=N)N)C(=O)N[C@H](C(=O)N[C@H](C(=O)N[C@@H](CCC(N)=O)C(=O)N[C@@H](CCCNC(=N)N)C(=O)N[C@H](C(=O)N[C@@H](CCCCN)C(=O)N[C@@H](CC(=O)O)C(=O)N[C@@H](Cc1ccccc1)C(=O)N[C@@H](CC(C)C)C(=O)N[C@@H](CCCNC(=N)N)C(=O)N[C@@H](CC(N)=O)C(=O)N[C@@H](CC(C)C)C(=O)N[C@H](C(=O)N1CCC[C@H]1C(=O)N[C@@H](CCCNC(=N)N)C(=O)N[C@H](C(=O)N[C@@H](CCC(=O)O)C(=O)N[C@@H](CO)C(=O)O)[C@@H](C)O)C(C)C)[C@@H](C)CC)C(C)C)[C@@H](C)CC [LL-37]
- incubation time after which the LL-37 band (4.5 kDa) starts fading (Proteinase K [1]): 20 min
- uncleaved peptide (Proteinase K [2]): ~ 5%
